Experimental data reported in US7838495B2, “Compositions and methods of use of EPB1, and ErbB3 binding protein” (University of Maryland, Baltimore, priority 2007, dated 2010).

Experiments:
Type in all cases: cell-based, human
C81 cells [1] = assay: Sensitivity of C81 transfectants to chemotherapeutic drugs (MTT); details: for decrease of growth: 20 nM, steroid reduced media; for sensitivity to Docetaxel: androgen deprived conditions
Experimental: FIG. 4A-C. […] Equal numbers (5×10^4) of vector or EBP1 stably transfected cells were plated at Day 0 in complete media and viable cell numbers determined at the indicated times. Each point represents mean±S.E. of 3 wells. Representative of 3 experiments (Right panel). Colony growth in soft agar. C81 cells stably transfected with either pcDNA or EBP1 were plated in soft agar at the cell densities indicated and colony numbers assessed at Day 10. Each point represents mean±S.E. of 3 dishes. Data is representative of 3 experiments. B. (Left Panel) Response of EBP1 and vector transfected C81 cells to dihydrotestosterone (DHT). EBP1 and vector control C81 transfected cells and early passage LNCaP cells were plated in complete media at 5×10^3 cells/well in 96 well plates for one day. The next day, cells were switched to steroid reduced medium for two days as described in the Materials and Methods. DHT was then added at the indicated concentrations. Cells were refed media every 3 days. Total cell numbers were determined seven days later by MTT assays. Each point represents mean±S.E. of 6 wells. Data is representative of two experiments. (Right Panel) Effect of Bicalutamide on DHT stimulated growth. Cells were plated as described in the Materials and Methods. After 2 days in steroid reduced medium, cells were fed with fresh steroid reduced medium with or without 10 μM bicalutamide (Casodex) in the presence or absence of 10 nM DHT. Total cell numbers were assessed 7 days later by MTT assay. Cells were refed media every 3 days. The data shown are mean±S.E. of six wells. […] C. […] C81 vector control or EBP1 transfectants were plated in 96 well plates in complete media and allowed to attach overnight. The cells were then placed in steroid reduced media for two days and then refed with steroid reduced media in the presence of the indicated concentrations of Docetaxel (left panel) or Mitoxantrone (right panic). Total cell numbers were determined by MTT assays 5 days later. Each point represents mean±S.E. of 6 wells. Data is representative of two experiments.
Western Blot Analysis. Western blot analysis was performed as previously described (19). The Ebp1 antibody was from Upstate (Lake Placid, N.Y.), the polyclonal antibody to actin from Sigma, the AKT and phospho AKT antibodies from Cell Signaling (Beverly, Mass.) and the AGR2 antibody was previously described (20) Cell Growth Assays Cell growth measurement in complete media was performed as described using a hemocytometer (21). For soft agar growth assays, increasing concentrations of cells (as indicated) were plated in 35 mm Petri dishes in 0.3% agar in complete media and colonies were counted after 10 days of incubation (21). For studies assessing the effect of DHT, HRG or chemotherapeutic agents on cell growth, cells (5×10^3) were plated in 96 well plates in complete media. After a 24-hour attachment period, the medium was replaced with steroid free medium [phenol red free RPMI 1640 and 5% charcoal stripped fetal bovine serum (Sigma)]. After 48 hours of steroid depletion, cells were refed with fresh steroid reduced medium with or without the indicated concentrations of DHT, bicalutamide (Casodex) (10 μM), HRG or the chemotherapeutic drugs at the concentrations indicated. Relative cell growth was determined using a Promega Proliferation Reagent (Promega, Madison Wis.) as per manufacturer's instructions with absorbance being read at […] using a Dynex plate reader. […]

LNCaP cells [2] = assay: Response of A16 and C13 LNCaP cells to docetaxel (MTT)
Experimental: FIG. 7A-C. Suppression of EBP1 by shRNA promotes a hormone refractory phenotype A. Western blot analysis of Ebp1. Lysates of LNCaP cells stably transduced with a control lentivirus (A16) or an EBP1 targeted shRNA (13C) were collected and resolved by SDS-PAGE. Western blots were probed for endogenous EBP1 or ACTIN as indicated. B. Inhibition of EBP1 expression abrogates the ability of HRG to arrest growth (Left panel) Control and shRNA EBP1 targeted cells were plated in complete media at […] for one day. The next day, cells were switched to steroid reduced-media and HRG added at the indicated concentrations. Total cell numbers were determined seven days later by MTT assay. Each point represents mean±S.E. of 6 wells. Data is representative of three experiments. (Right Panel) AKT phosphorylation in EBP1 knock out cells Control (A16) or EBP 1 knock out cells (C13) were treated with HRG (20 ng/ml) for 15 mm and cell lysates assessed for the presence of phospho and total AKT as indicated. C. […] Sixteen hours later, luciferase activity was measured. […] Lysates of logarithmically growing A16 and C13 cells were resolved by SDS-PAGE and analyzed by Western blotting using antibodies to AGR2 and ACTIN as indicated. […] The viability of the cells was determined by MTT assays 5 days later. […]

LNCaP cells [3] = assay: Growth response of LNCaP vector controls and EBP1 transfectants to DHT and bicalutamide; design: Emax: dose or concentration left out as unconfirmed
Experimental: Cell Growth Assays: To measure growth in complete media, cells (2×10^4) were seeded in triplicate in individual wells of 12-well tissue culture plates in RPMI-1640 with 10% FBS and cultured for the indicated number of days. Cells were trypsinized, stained with Trypan Blue (0.4%), and counted in a hemacytometer. For soft agar growth assays, increasing concentrations of cells (as indicated) were plated in 35 mm Petri dishes in complete media and 0.3% Difco Bacto Agar over an 0.5% agar layer. Colonies were counted after 10 days of incubation. For studies assessing the effect of dihydrotestosterone (DHT) on cell growth, cells (2×10^4) were plated in 12-well plates in complete media. After a 24-hour attachment period, the medium was replaced with steroid-free medium [phenol red-free RPMI 1640 and 5% charcoal-stripped FBS (Sigma)] for 48 hours. The final concentration of testosterone in the steroid-reduced media was less than 5 pM. After 48 hours of steroid depletion, cells were re-fed with fresh steroid-reduced medium with or without the indicated concentrations of DHT and/or bicalutamide (10 μM), and total cell numbers were assessed 7 days later.

C81 cells [4] = assay: Response of C81 transfectants to DHT and bicalutamide; details: steroid reduced medium
Experimental: FIG. 4A-C. […] Equal numbers (5×10^4) of vector or EBP1 stably transfected cells were plated at Day 0 in complete media and viable cell numbers determined at the indicated times. Each point represents mean±S.E. of 3 wells. Representative of 3 experiments (Right panel). Colony growth in soft agar. C81 cells stably transfected with either pcDNA or EBP1 were plated in soft agar at the cell densities indicated and colony numbers assessed at Day 10. Each point represents mean±S.E. of 3 dishes. Data is representative of 3 experiments. B. (Left Panel) Response of EBP1 and vector transfected C81 cells to dihydrotestosterone (DHT). EBP1 and vector control C81 transfected cells and early passage LNCaP cells were plated in complete media at 5×10^3 cells/well in 96 well plates for one day. […] Total cell numbers were determined seven days later by MTT assays. […] Total cell numbers were assessed 7 days later by MTT assay. […] Total cell numbers were determined by MTT assays 5 days later. […]
Western Blot Analysis. […] For soft agar growth assays, increasing concentrations of cells (as indicated) were plated in 35 mm Petri dishes in 0.3% agar in complete media and colonies were counted after 10 days of incubation (21). […] Relative cell growth was determined using a Promega Proliferation Reagent (Promega, Madison Wis.) as per manufacturer's instructions with absorbance being read at […] using a Dynex plate reader. […]

MCF-7 cells = assay: Growth of MCF-7 vector control and EBP1 transfectants in response to HRG or EGF
Experimental: FIG. 9A-D. Ectopic expression of EBP1 blocks HRG-induced proliferation. (A) MCF 7 cells were stably transfected with a control Flag vector (CMV) or a FLAG-EBP1 vector (EBP1). Cells lysates were analyzed by Western blotting for FLAG and actin levels as indicated (left panel) or EBP1 and actin (right panel). (B) MCF-7 vector control (Control) or EBP1 transfected cells (EBP1) were plated in 96-well plates in complete media overnight, and then switched to media with 2% FBS and the indicated concentrations of HRGb1 as described in Section 2. Growth was determined 4 days later using a Promega Proliferation Assay. Each point represents the mean±SD for six wells. Data shown are representative of three experiments. (C) AU565 vector control (Control) or EBP1 transfected cells (EBP1) were plated in 96-well plates in complete media overnight, and then switched to media with 2% FBS and the indicated concentrations of HRGβ1. Growth was determined 4 days later using a Promega Proliferation Assay. Each point represents the mean±SD for six wells and is representative of two experiments. […] Growth was determined 4 days later using a Promega Proliferation Assay. […]
2.5. […] Protein concentrations were measured using a detergent compatible kit (Bio-Rad). […] Images were quantified using IMAGE-J software (NIH). […]

## O=C1c2c(O)ccc(O)c2C(=O)c2c(NCCNCCO)ccc(NCCNCCO)c21 [Mitoxantrone]
C81 cells [1]; C81 EBP1 transfectants
  decrease of growth: approximately 80%
C81 cells [1]; C81 vector controls
  decrease of growth: 40%
C81 cells [1]; both vector control and EBP1 transfectants
  concentration at which sensitivity plateaued: 20 nM

## CC(=O)O[C@@]12CO[C@@H]1C[C@H](O)[C@@]1(C)C(=O)[C@H](O)C3=C(C)[C@@H](OC(=O)[C@H](O)[C@@H](NC(=O)OC(C)(C)C)c4ccccc4)C[C@@](O)([C@@H](OC(=O)c4ccccc4)[C@H]21)C3(C)C [Docetaxel]
C81 cells [1]; C81 cells
  sensitivity to Docetaxel: relatively refractory
C81 cells [1]; EBP1 transfected C81 cells, 5-20 nM
  sensitivity to Docetaxel: significantly more sensitive
LNCaP cells [2]; A16 control LNCaP cells, 5 nM
  reduction in growth: 65%
LNCaP cells [2]; Homo sapiens, C13 EBP1 knock down LNCaP cells, 20 nM, read-out: maximum growth inhibition
  inhibition at 0.02 µM: 15%

## C[C@]12CCC(=O)C[C@@H]1CC[C@@H]1[C@@H]2CC[C@]2(C)[C@@H](O)CC[C@@H]12 [DHT, dihydrotestosterone]
LNCaP cells [3]; Homo sapiens, LNCaP, read-out: maximal stimulation of growth by DHT
  Emax: 250%
LNCaP cells [3]; LNCaP EBP1 transfectants, 10^-9 M DHT
  stimulation of growth by DHT: 35%
C81 cells [4]; EBP1 transfected C81 cells
  growth response to androgen (DHT): responded to androgen in a similar manner as the original low passage LNCaP androgen sensitive cells
C81 cells [4]; vector control C81 cells
  growth response to androgen (DHT): unresponsive

## EGF: growth factor from Sigma used to stimulate MCF-7 growth
MCF-7 cells; MCF-7 EBP1 transfected cells
  growth response to EGF: growth stimulated by EGF to the same extent as control cells
MCF-7 cells; MCF-7 control cells
  growth response to EGF: able to respond to EGF
